# Reference: BindingDB's records for patent US20260062412 (Chugai Seiyaku Kabushiki Kaisha, 2026)
# Biological target: T1, Membrane-associated tyrosine- and threonine-specific cdc2-inhibitory kinase (Homo sapiens, UniProt Q99640)
# T1 sequence (Q99640 whole entry): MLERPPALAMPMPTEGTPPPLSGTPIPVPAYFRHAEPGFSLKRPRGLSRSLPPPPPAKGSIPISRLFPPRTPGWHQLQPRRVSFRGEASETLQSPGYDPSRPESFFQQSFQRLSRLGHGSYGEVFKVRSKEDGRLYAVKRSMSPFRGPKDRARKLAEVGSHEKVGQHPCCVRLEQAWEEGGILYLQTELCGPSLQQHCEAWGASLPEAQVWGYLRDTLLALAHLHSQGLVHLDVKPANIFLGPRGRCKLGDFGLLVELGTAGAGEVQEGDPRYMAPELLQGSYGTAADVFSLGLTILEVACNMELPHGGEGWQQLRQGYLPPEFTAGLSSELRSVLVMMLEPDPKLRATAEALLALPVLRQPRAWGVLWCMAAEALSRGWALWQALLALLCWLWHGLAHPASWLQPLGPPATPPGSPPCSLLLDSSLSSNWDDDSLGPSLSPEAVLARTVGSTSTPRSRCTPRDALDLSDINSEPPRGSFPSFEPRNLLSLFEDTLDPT
# Assay: Test for Binding to ATP Binding Site of MYT1
# Experimental: Table 3-1 to 3-5: The binding capacity of each compound to the ATP binding site of MYT1 Kinase protein was evaluated. 5× Kinase Buffer A (manufactured by Thermo Fisher Scientific Inc., PV3189) was diluted to 5 times with Milli-Q water, thereby preparing 1× Kinase Buffer. Using 1× Kinase Buffer, MYT1 protein (manufactured by Carna Biosciences, Inc.) was diluted to a concentration of 0.005 μM and Eu-Anti-GST Antibody was diluted to a concentration of 1 μM. […] To a 96 well-plate, 2.5 μL of a compound diluted with DMSO was added. […] The mixture was well mixed and then allowed to stand at room temperature for 30 minutes. Thereafter, fluorescence wavelengths of 665 nm and 615 nm generated by irradiation with excitation light of 340 nm were detected using Envision (manufactured by PerkinElmer). The proportion of Tracer bound to MYT1 protein was calculated for every condition by dividing the intensity at the fluorescence wavelength of 665 nm by the intensity at the fluorescence wavelength of 615 nm.
row,IC50,Structure (SMILES)
1,4.2 nM,"CC[C@@H](C)Oc1cc2c(c3cccnc13)NC(=O)C(N)C2c1ccc(F)c2[nH]ncc12 (stereo partly drawn) [US20260062412, Compound C36]"
2,1.2 nM,"N#C[C@H]1C[C@@H](Oc2cc3c(-c4cc(F)c(F)c5[nH]ncc45)c(N)c(=O)[nH]c3c3cccnc23)C1 [US20260062412, Compound C212]"
3,0.83 nM,"Nc1c(-c2cc(F)c(F)c3[nH]ncc23)c2cc(O[C@H]3C[C@@H](F)C3)c3ncccc3c2[nH]c1=O [US20260062412, Compound C213]"
